This note sets out measurements from PubChem BioAssay AID296 (DTP/NCI, 2004).

Values joined by “and” are separate entries in the source; they are usually repeats but may differ in a detail not shown here. Equal values may be shown once. Records with an inconclusive call do not appear.

The test concerns MX-1 breast xenograft, nude mice, tumor weight T/C. Kind of test: NCI In Vivo Anticancer Drug Screen. Data for tumor model Human Mammary Carcinoma MX-1 Xenograft (intrarenal inoculation) in NU/NU Swiss (nude) mice. To be noted: endpoint: mean tumor weight change, higher = larger tumour. The method, boiled down: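 Antitumour effect measured in vivo against vehicle controls, expressed as T/C.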

Setting [1] is: dose: 300.0 mg/kg/injection, schedule: Q04DX003 (sc), vehicle: saline with Tween-80.
[2] abbreviates: dose: 600.0 mg/kg/injection, schedule: Q04DX003 (sc), vehicle: saline with Tween-80.
[3] abbreviates: dose: 1200.0 mg/kg/injection, schedule: Q04DX003 (sc), vehicle: saline with Tween-80.
Setting [4] is: dose: 400.0 mg/kg/injection, schedule: Q01DX010 (sc), vehicle: saline with Tween-80.
Setting [5] is: dose: 100.0 mg/kg/injection, schedule: Q04DX003 (sc), vehicle: saline.
Setting [6] is: dose: 12.0 mg/kg/injection, schedule: Q04DX003 (sc), vehicle: saline.

As to `Cc1c(N)nc(C(CC(N)=O)NCC(N)C(N)=O)nc1C(=O)NC(C(=O)NC(C)C(O)C(C)C(=O)NC(C(=O)NCCc1nc(-c2nc(C(=O)NCCCNCCCc3ccccn3)cs2)cs1)C(C)O)C(OC1OC(CO)C(O)C(O)C1OC1OC(CO)C(O)C(OC(N)=O)C1O)c1cnc[nH]1` (stereo not drawn), the T/C (dose: 9.0 mg/kg/injection, schedule: Q04DX003 (sc), vehicle: water) was 77 % of control; the T/C (dose: 18.0 mg/kg/injection, schedule: Q04DX003 (sc), vehicle: water) was 66 % of control; the T/C (dose: 36.0 mg/kg/injection, schedule: Q04DX003 (sc), vehicle: water) was 75 % of control; the T/C (dose: 72.0 mg/kg/injection, schedule: Q04DX003 (sc), vehicle: water) was 44 % of control.

Consider `O=C1SC(c2ccccc2)=S=C1c1ccccc1`, for which the T/C is, setting by setting: under setting [1], 102 % of control; under setting [2], 78 % of control; under setting [3], 109 % of control; (dose: 2400.0 mg/kg/injection, schedule: Q04DX003 (sc), vehicle: saline with Tween-80) 48 % of control.

`NC(=S)N/N=C/c1ccc(OC(=O)COc2ccc(Cl)cc2)cn1`: the T/C under setting [1] is 112 % of control, the T/C under setting [2] is 88 % of control and the T/C under setting [3] was 92 % of control.

For the compound `O=C(N/N=C\c1cc(Br)cc(Br)c1O)N/N=C/c1cc(Br)cc(Br)c1O`, the T/C reads like this: under setting [4], 72 % of control; (dose: 800.0 mg/kg/injection, schedule: Q01DX010 (sc), vehicle: saline with Tween-80) 61 % of control.

In the case of `CSC(SC)=C1C(=O)NC(=O)NC1=O`, the T/C (dose: 75.0 mg/kg/injection, schedule: Q04DX003 (sc), vehicle: suspension in saline) was 69 % of control; the T/C (dose: 150.0 mg/kg/injection, schedule: Q04DX003 (sc), vehicle: suspension in saline) was 75 % of control; the T/C (dose: 300.0 mg/kg/injection, schedule: Q04DX003 (sc), vehicle: suspension in saline) was 108 % of control; the T/C (dose: 600.0 mg/kg/injection, schedule: Q04DX003 (sc), vehicle: suspension in saline) was 42 % of control.

For `O=C(/C=C(\Cl)C(=O)NO)NO`, the T/C is 93 % of control (dose: 50.0 mg/kg/injection, schedule: Q04DX003 (sc), vehicle: saline); 80 % of control under setting [5]; 77 % of control (dose: 200.0 mg/kg/injection, schedule: Q04DX003 (sc), vehicle: saline).

`COc1cccc2c1C(=O)c1c(O)c3c(c(O)c1C2=O)C[C@@](O)(C(=O)COC(=O)c1cccnc1)C[C@@H]3OC1CC(N)C(O)C(C)O1` (stereo partly drawn): the T/C reads like this: (dose: 6.0 mg/kg/injection, schedule: Q04DX003 (sc), vehicle: saline) 52 % of control and 58 % of control; under setting [6], 15 % of control and 26 % of control; (dose: 24.0 mg/kg/injection, schedule: Q04DX003 (sc), vehicle: saline) 20 % of control.

`O=CC=O`: the T/C (dose: 50.0 mg/kg/injection, schedule: Q01DX010 (sc), vehicle: saline with Tween-80) is 109 % of control; the T/C (dose: 100.0 mg/kg/injection, schedule: Q01DX010 (sc), vehicle: saline with Tween-80) is 74 % of control; the T/C (dose: 200.0 mg/kg/injection, schedule: Q01DX010 (sc), vehicle: saline with Tween-80) was 100 % of control; the T/C under setting [4] is 60 % of control.

For `O=C1C(NCCO)=C(N2CC2)C(=O)C(NCCO)=C1N1CC1`, the T/C was 69 % of control (dose: 0.5 mg/kg/injection, schedule: Q04DX003 (ip), vehicle: saline); 64 % of control (dose: 0.75 mg/kg/injection, schedule: Q04DX003 (sc), vehicle: saline); 50 % of control (dose: 1.0 mg/kg/injection, schedule: Q04DX003 (ip), vehicle: saline); 37 % of control (dose: 1.5 mg/kg/injection, schedule: Q04DX003 (sc), vehicle: saline); 29 % of control (dose: 2.0 mg/kg/injection, schedule: Q04DX003 (ip), vehicle: saline); 66 % of control (dose: 2.0 mg/kg/injection, schedule: Q04DX003 (sc), vehicle: saline). The T/C is, setting by setting: (dose: 3.0 mg/kg/injection, schedule: Q04DX003 (sc), vehicle: saline) 9 % of control; (dose: 4.0 mg/kg/injection, schedule: Q04DX003 (ip), vehicle: saline) 8 % of control; (dose: 8.0 mg/kg/injection, schedule: Q04DX003 (sc), vehicle: saline) -90 % of control.

On to `CO[C@@H]1[C@H](O)CC[C@]2(CO2)[C@H]1[C@@]1(C)O[C@@H]1CC=C(C)C`, for which the T/C runs as follows: (dose: 150.0 mg/kg/injection, schedule: Q04DX003 (sc), vehicle: saline with Tween-80) 150 % of control; under setting [1], 79 % of control; under setting [2], 99 % of control; under setting [3], 96 % of control.

Take `CN1CCN(c2ccc3nc(-c4ccc5nc(-c6ccc(O)cc6)[nH]c5c4)[nH]c3c2)CC1`: the T/C under setting [5] was 69 % of control; the T/C (dose: 225.0 mg/kg/injection, schedule: Q04DX003 (sc), vehicle: saline) was 100 % of control; the T/C (dose: 225.0 mg/kg/injection, schedule: Q04DX003 (sc), vehicle: suspension in saline) is 102 % of control; the T/C (dose: 250.0 mg/kg/injection, schedule: Q04DX003 (sc), vehicle: suspension in saline) is 67 % of control; the T/C (dose: 400.0 mg/kg/injection, schedule: Q04DX003 (sc), vehicle: saline) is 52 % of control; the T/C (dose: 500.0 mg/kg/injection, schedule: Q04DX003 (sc), vehicle: saline) is 123 % of control. For the same compound, the T/C is, setting by setting: (dose: 800.0 mg/kg/injection, schedule: Q04DX003 (sc), vehicle: suspension in saline) 176 % of control; (dose: 1000.0 mg/kg/injection, schedule: Q04DX003 (sc), vehicle: saline) 69 % of control; (dose: 1000.0 mg/kg/injection, schedule: Q04DX003 (sc), vehicle: suspension in saline) 199 % of control.

Regarding `COc1cc([C@@H]2c3cc4c(c(O)c3C[C@H]3COC(=O)[C@@H]32)OCO4)cc(OC)c1OC`, the T/C was 78 % of control (dose: 2.0 mg/kg/injection, schedule: Q01DX010 (sc), vehicle: saline) and 56 % of control (dose: 4.0 mg/kg/injection, schedule: Q01DX010 (sc), vehicle: saline).

For the compound `COc1ccc(C(=O)/C(Br)=C/C(=O)O)cc1`, the T/C (dose: 12.5 mg/kg/injection, schedule: Q01DX010 (sc), vehicle: saline) is 110 % of control; the T/C (dose: 25.0 mg/kg/injection, schedule: Q01DX010 (sc), vehicle: saline) was 63 % of control; the T/C (dose: 50.0 mg/kg/injection, schedule: Q01DX010 (sc), vehicle: saline) was 98 % of control.

`COC(C(=O)C(O)C(C)O)C1Cc2cc3cc(OC4CC(OC(C)=O)C(OC5CC(O)C(OC)C(C)O5)C(C)O4)cc(O)c3c(O)c2C(=O)C1OC1CC(OC2CC(OC3CC(C)(O)C(OC(=O)C(C)C)C(C)O3)C(O)C(C)O2)C(O)C(C)O1` (stereo not drawn): the T/C is 47 % of control (dose: 1.0 mg/kg/injection, schedule: Q04DX003 (sc), vehicle: saline with Tween-80); 11 % of control and 26 % of control and 28 % of control (dose: 1.5 mg/kg/injection, schedule: Q04DX003 (sc), vehicle: saline with Tween-80); 49 % of control (dose: 2.0 mg/kg/injection, schedule: Q04DX003 (sc), vehicle: saline with Tween-80); 13 % of control (dose: 4.0 mg/kg/injection, schedule: Q04DX003 (sc), vehicle: saline with Tween-80); -79 % of control (dose: 8.0 mg/kg/injection, schedule: Q04DX003 (sc), vehicle: saline with Tween-80).

Consider `O=c1oc2c(O)c(O)cc3c(=O)oc4c(O)c(O)cc1c4c23`, for which the T/C runs as follows: (dose: 150.0 mg/kg/injection, schedule: Q04DX003 (sc), vehicle: Klucel (hydroxypropylcellulose) (HPC)) 115 % of control; (dose: 300.0 mg/kg/injection, schedule: Q04DX003 (sc), vehicle: Klucel (hydroxypropylcellulose) (HPC)) 109 % of control; (dose: 600.0 mg/kg/injection, schedule: Q04DX003 (sc), vehicle: Klucel (hydroxypropylcellulose) (HPC)) 67 % of control; (dose: 1200.0 mg/kg/injection, schedule: Q04DX003 (sc), vehicle: Klucel (hydroxypropylcellulose) (HPC)) 101 % of control.

In the case of `CCC1(O)CC2CN(CCc3c([nH]c4ccccc34)C(C(=O)OC)(c3cc4c(cc3OC)N(C)C3C(O)(C(=O)NCCSSCCNC(=O)C5(O)C(O)C6(CC)C=CCN7CCC8(c9cc(C%10(C(=O)OC)CC%11CN(CCc%12c%10[nH]c%10ccccc%12%10)CC(O)(CC)C%11)c(OC)cc9N(C)C58)C76)C(O)C5(CC)C=CCN6CCC43C65)C2)C1` (stereo not drawn), the T/C is, setting by setting: (dose: 1.5 mg/kg/injection, schedule: Q04DX003 (sc), vehicle: suspension in saline) 101 % of control; (dose: 3.0 mg/kg/injection, schedule: Q04DX003 (sc), vehicle: suspension in saline) 102 % of control; (dose: 6.0 mg/kg/injection, schedule: Q04DX003 (sc), vehicle: suspension in saline) 70 % of control; under setting [6], 1 % of control; (dose: 12.0 mg/kg/injection, schedule: Q04DX003 (sc), vehicle: suspension in saline) 73 % of control.
